Measured values published in patent US20240374591A1, “CEREBLON BINDING COMPOUNDS, COMPOSITIONS THEREOF, AND METHODS OF TREATMENT THEREWITH” (CELGENE CORPORATION, priority 2021, published 2024).
Counter-ions that a name gives are not always drawn.

Target: T1, AR in VCaP cells (Homo sapiens, UniProt P10275)
T1 construct: endogenous in cells; host or cells: VCaP cells
T1 sequence (P10275 1-920): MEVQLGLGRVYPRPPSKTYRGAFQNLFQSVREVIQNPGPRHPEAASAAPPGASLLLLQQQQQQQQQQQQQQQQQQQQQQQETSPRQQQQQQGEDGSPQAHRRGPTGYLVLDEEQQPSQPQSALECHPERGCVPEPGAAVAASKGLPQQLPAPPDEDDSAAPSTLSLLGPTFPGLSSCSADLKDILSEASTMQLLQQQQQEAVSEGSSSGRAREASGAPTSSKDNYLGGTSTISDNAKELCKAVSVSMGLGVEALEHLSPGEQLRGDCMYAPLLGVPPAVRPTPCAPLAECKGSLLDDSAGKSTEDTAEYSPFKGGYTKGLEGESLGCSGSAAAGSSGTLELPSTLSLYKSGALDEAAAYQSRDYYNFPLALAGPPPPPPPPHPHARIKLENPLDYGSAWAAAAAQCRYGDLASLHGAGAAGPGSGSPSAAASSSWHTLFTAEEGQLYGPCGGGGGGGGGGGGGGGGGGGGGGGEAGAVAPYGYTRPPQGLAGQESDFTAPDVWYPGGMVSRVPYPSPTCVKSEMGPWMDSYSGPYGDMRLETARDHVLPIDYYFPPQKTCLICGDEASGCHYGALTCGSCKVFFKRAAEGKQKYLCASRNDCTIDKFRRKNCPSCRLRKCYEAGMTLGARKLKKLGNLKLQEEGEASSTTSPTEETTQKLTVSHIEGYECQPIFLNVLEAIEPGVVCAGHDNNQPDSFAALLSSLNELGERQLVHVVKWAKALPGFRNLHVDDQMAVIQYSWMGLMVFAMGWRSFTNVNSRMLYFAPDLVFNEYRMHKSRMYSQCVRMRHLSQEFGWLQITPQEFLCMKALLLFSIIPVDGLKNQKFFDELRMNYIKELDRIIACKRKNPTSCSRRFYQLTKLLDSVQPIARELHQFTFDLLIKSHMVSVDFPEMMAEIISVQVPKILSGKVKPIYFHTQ
Assay: VCAP AR Degradation Assay (AR ELISA, 24 h)
Format: cell-based
Conditions: for DC50: concentration giving 50% AR degradation vs DMSO control; for remaining activity at up to 5 µM: lowest measured AR level normalized to DMSO control, top concentration 5 μM, read-out: Y
Protocol: VCAP AR Degradation Assay. Test compounds were pre-dispensed into a Corning CellBind 96-well clear bottom plate (Cat #3300) using an acoustic dispenser to make a 10-point concentration series at 1:3 dilution for each compound. The final top concentration of each compound was 5 μM. DMSO at a final concentration of 0.1% was used as a control. VCaP cells cultured in DMEM with 8% fetal bovine serum (FBS) were seeded at 50K cells per well in a 200 μL volume into the compound plate and incubated at 37° C. in a CO2 incubator for 24 h. The medium was carefully removed from the cells and the plate was placed on ice. One hundred μL of ice-cold 1× cell lysis buffer from Cell Signaling Technologies (Cat #9803) was added to each well of the cells and the plate was incubated at 4° C. on a shaker for 1 h. Fifteen μL of cell lysate was used for AR ELISA detection using a PathScan Total Sandwich AR ELISA kit (Cell Signaling Technology, Cat #12580). AR levels in compound-treated wells were normalized to that of DMSO control and expressed as percent of control (PoC) (y). A Four Parameter Logistic Model (Sigmoidal Dose-Response Model) was used to determine the compound's DC50, and EC50, using the following equation: […]
The lowest measured AR level normalized to DMSO control in response to compound treatment, termed Y value, was used to characterize the compound-mediated AR degradation efficiency.

| SMILES | DC50 [nM] | remaining activity at up to 5 µM [%] |
| --- | --- | --- |
| C[C@@H]1C[C@@H](CCO[C@H]2CC[C@H](N3C(=S)N(c4ccc(C#N)c(C(F)(F)F)c4)C(=O)C3(C)C)CC2)C[C@H](C)N1CC(=O)Nc1ccc(C2CCC(=O)NC2=O)nc1 (stereo partly drawn) [Cmpd 14, 2-((2R,4r,6S)-4-(2-((trans-4-(3-(4-Cyano-3-(trifluoromethyl)phenyl)-5,5-dimethyl-4-oxo-2-thioxoimidazolidin-1-yl)cyclohexyl)oxy)ethyl)-2,6-dimethylpiperidin-1-yl)-N-(6-(2,6-dioxopiperidin-3-yl)pyridin-3-yl)acetamide hydrochloride] | ≤ 5 | 20 to 30 |
| C[C@@H]1CN(CCCC[C@H]2CC[C@H](N3C(=S)N(c4ccc(C#N)c(C(F)(F)F)c4)C(=O)C3(C)C)CC2)C[C@H](C)N1CC(=O)Nc1ccc(N2CCC(=O)NC2=O)nc1 [Cmpd 15, 2-((2R,6S)-4-(4-((trans)-4-(3-(4-Cyano-3-(trifluoromethyl)phenyl)-5,5-dimethyl-4-oxo-2-thioxoimidazolidin-1-yl)cyclohexyl)butyl)-2,6-dimethylpiperazin-1-yl)-N-(6-(2,4-dioxotetrahydropyrimidin-1(2H)-yl)pyridin-3-yl)acetamide] | 100 to 10000 | 30 to 70 |
| C[C@@H]1CN(CCCC[C@H]2CC[C@H](N3C(=S)N(c4ccc(C#N)c(C(F)(F)F)c4)C(=O)C3(C)C)CC2)C[C@H](C)N1CC(=O)Nc1ccc(C2CCC(=O)NC2=O)nc1 (stereo partly drawn) [Cmpd 16, 2-((2R,6S)-4-(4-((trans)-4-(3-(4-Cyano-3-(trifluoromethyl)phenyl)-5,5-dimethyl-4-oxo-2-thioxoimidazolidin-1-yl)cyclohexyl)butyl)-2,6-dimethylpiperazin-1-yl)-N-(6-(2,6-dioxopiperidin-3-yl)pyridin-3-yl)acetamide] | ≤ 5 | 20 to 30 |
| C[C@@H]1C[C@H](CCO[C@H]2CC[C@H](N3C(=S)N(c4ccc(C#N)c(C(F)(F)F)c4)C(=O)C3(C)C)CC2)C[C@H](C)N1CC(=O)Nc1ccc(C2CCC(=O)NC2=O)nc1 (stereo partly drawn) [Cmpd 17, 2-((2R,4r,6S)-4-(2-(((trans)-4-(3-(4-Cyano-3-(trifluoromethyl)phenyl)-5,5-dimethyl-4-oxo-2-thioxoimidazolidin-1-yl)cyclohexyl)oxy)ethyl)-2,6-dimethylpiperidin-1-yl)-N-(6-(2,6-dioxopiperidin-3-yl)pyridin-3-yl)acetamide] | ≤ 5 | 20 to 30 |
| C[C@@H]1C[C@H](CCO[C@H]2CC[C@H](N3C(=S)N(c4cnc(C#N)c(C(F)(F)F)c4)C(=O)C3(C)C)CC2)C[C@H](C)N1CC(=O)Nc1ccc(C2CCC(=O)NC2=O)nc1 (stereo partly drawn) [Cmpd 18, 2-((2R,4r,6S)-4-(2-(((trans)-4-(3-(6-Cyano-5-(trifluoromethyl)pyridin-3-yl)-5,5-dimethyl-4-oxo-2-thioxoimidazolidin-1-yl)cyclohexyl)oxy)ethyl)-2,6-dimethylpiperidin-1-yl)-N-(6-(2,6-dioxopiperidin-3-yl)pyridin-3-yl)acetamide] | ≤ 5 | 0 to 20 |
| C[C@@H]1C[C@@H](CCO[C@H]2CC[C@H](N3C(=S)N(c4cnc(C#N)c(C(F)(F)F)c4)C(=O)C3(C)C)CC2)C[C@H](C)N1CC(=O)Nc1ccc(C2CCC(=O)NC2=O)nc1 (stereo partly drawn) [Cmpd 19, 2-((2R,4s,6S)-4-(2-(((trans)-4-(3-(6-Cyano-5-(trifluoromethyl)pyridin-3-yl)-5,5-dimethyl-4-oxo-2-thioxoimidazolidin-1-yl)cyclohexyl)oxy)ethyl)-2,6-dimethylpiperidin-1-yl)-N-(6-(2,6-dioxopiperidin-3-yl)pyridin-3-yl)acetamide] | ≤ 5 | 20 to 30 |
| C[C@@H]1C[C@H](OCCC[C@H]2CC[C@H](N3C(=S)N(c4ccc(C#N)c(C(F)(F)F)c4)C(=O)C3(C)C)CC2)C[C@H](C)N1CC(=O)Nc1ccc(C2CCC(=O)NC2=O)nc1 (stereo partly drawn) [Cmpd 20, 2-((2R,4r,6S)-4-(3-((trans)-4-(3-(4-Cyano-3-(trifluoromethyl)phenyl)-5,5-dimethyl-4-oxo-2-thioxoimidazolidin-1-yl)cyclohexyl)propoxy)-2,6-dimethylpiperidin-1-yl)-N-(6-(2,6-dioxopiperidin-3-yl)pyridin-3-yl)acetamide] | 5 to 10 | 20 to 30 |
| CC1(C)C(=O)N(c2cnc(C#N)c(C(F)(F)F)c2)C(=S)N1[C@H]1CC[C@H](CCCN2CCN(CC(=O)Nc3ccc(C4CCC(=O)NC4=O)nc3)[C@@H](C(F)(F)F)C2)CC1 (stereo partly drawn) [Cmpd 21, 2-((R)-4-(3-((trans)-4-(3-(6-Cyano-5-(trifluoromethyl)pyridin-3-yl)-5,5-dimethyl-4-oxo-2-thioxoimidazolidin-1-yl)cyclohexyl)propyl)-2-(trifluoromethyl)piperazin-1-yl)-N-(6-(2,6-dioxopiperidin-3-yl)pyridin-3-yl)acetamide] | ≤ 5 | 0 to 20 |
| CC1(C)C(=O)N(c2ccc(C#N)c(C(F)(F)F)c2)C(=S)N1[C@H]1CC[C@H](CCCN2CCN(CC(=O)Nc3ccc(C4CCC(=O)NC4=O)nc3)[C@@H](C(F)(F)F)C2)CC1 (stereo partly drawn) [Cmpd 22, 2-((R)-4-(3-((trans)-4-(3-(4-Cyano-3-(trifluoromethyl)phenyl)-5,5-dimethyl-4-oxo-2-thioxoimidazolidin-1-yl)cyclohexyl)propyl)-2-(trifluoromethyl)piperazin-1-yl)-N-(6-(2,6-dioxopiperidin-3-yl)pyridin-3-yl)acetamide] | 10 to 100 | 20 to 30 |
| CC1(C)C(=O)N(c2cnc(C#N)c(C(F)(F)F)c2)C(=S)N1[C@H]1CC[C@H](OCCCN2CCN(CC(=O)Nc3ccc(C4CCC(=O)NC4=O)nc3)[C@@H](C(F)(F)F)C2)CC1 (stereo partly drawn) [Cmpd 23, 2-((R)-4-(3-(((trans)-4-(3-(6-Cyano-5-(trifluoromethyl)pyridin-3-yl)-5,5-dimethyl-4-oxo-2-thioxoimidazolidin-1-yl)cyclohexyl)oxy)propyl)-2-(trifluoromethyl)piperazin-1-yl)-N-(6-(2,6-dioxopiperidin-3-yl)pyridin-3-yl)acetamide] | ≤ 5 | 0 to 20 |
| CC1(C)C(=O)N(c2cnc(C#N)c(C(F)(F)F)c2)C(=S)N1[C@H]1CC[C@H](OCCN2CCN(CC(=O)Nc3ccc(C4CCC(=O)NC4=O)nc3)[C@@H](C(F)(F)F)C2)CC1 (stereo partly drawn) [Cmpd 24, 2-((R)-4-(2-(((trans)-4-(3-(6-Cyano-5-(trifluoromethyl)pyridin-3-yl)-5,5-dimethyl-4-oxo-2-thioxoimidazolidin-1-yl)cyclohexyl)oxy)ethyl)-2-(trifluoromethyl)piperazin-1-yl)-N-(6-(2,6-dioxopiperidin-3-yl)pyridin-3-yl)acetamide] | ≤ 5 | 20 to 30 |
| CC1(C)C(=O)N(c2ccc(C#N)c(C(F)(F)F)c2)C(=S)N1[C@H]1CC[C@H](OCCCN2CCN(CC(=O)Nc3ccc(C4CCC(=O)NC4=O)nc3)[C@@H](C(F)(F)F)C2)CC1 (stereo partly drawn) [Cmpd 25, 2-((R)-4-(3-(((trans)-4-(3-(4-Cyano-3-(trifluoromethyl)phenyl)-5,5-dimethyl-4-oxo-2-thioxoimidazolidin-1-yl)cyclohexyl)oxy)propyl)-2-(trifluoromethyl)piperazin-1-yl)-N-(6-(2,6-dioxopiperidin-3-yl)pyridin-3-yl)acetamide] | ≤ 5 | 20 to 30 |
| C[C@@H]1C[C@H](OCCC[C@H]2CC[C@H](N3C(=S)N(c4cnc(C#N)c(C(F)(F)F)c4)C(=O)C3(C)C)CC2)C[C@H](C)N1CC(=O)Nc1ccc(C2CCC(=O)NC2=O)nc1 (stereo partly drawn) [Cmpd 26, 2-((2R,4r,6S)-4-(3-((trans)-4-(3-(6-Cyano-5-(trifluoromethyl)pyridin-3-yl)-5,5-dimethyl-4-oxo-2-thioxoimidazolidin-1-yl)cyclohexyl)propoxy)-2,6-dimethylpiperidin-1-yl)-N-(6-(2,6-dioxopiperidin-3-yl)pyridin-3-yl)acetamide] | ≤ 5 | 0 to 20 |
